In ChEMBL document CHEMBL1909046, “DrugMatrix in vitro pharmacology data”:

Tests used:
Substance-P receptor = Substance-P receptor (Homo sapiens, UniProt P25103); assay type: cell membranes, Membrane; conditions: cho; note: in other assays of this panel Not Active means under 50% inhibition at 10 µM
Calcitonin receptor = target: T1, Calcitonin receptor (Homo sapiens, UniProt P30988); assay type: cell membranes, Membrane; conditions: t47d; note: in other assays of this panel Not Active means under 50% inhibition at 10 µM
T1 sequence (P30988 whole entry): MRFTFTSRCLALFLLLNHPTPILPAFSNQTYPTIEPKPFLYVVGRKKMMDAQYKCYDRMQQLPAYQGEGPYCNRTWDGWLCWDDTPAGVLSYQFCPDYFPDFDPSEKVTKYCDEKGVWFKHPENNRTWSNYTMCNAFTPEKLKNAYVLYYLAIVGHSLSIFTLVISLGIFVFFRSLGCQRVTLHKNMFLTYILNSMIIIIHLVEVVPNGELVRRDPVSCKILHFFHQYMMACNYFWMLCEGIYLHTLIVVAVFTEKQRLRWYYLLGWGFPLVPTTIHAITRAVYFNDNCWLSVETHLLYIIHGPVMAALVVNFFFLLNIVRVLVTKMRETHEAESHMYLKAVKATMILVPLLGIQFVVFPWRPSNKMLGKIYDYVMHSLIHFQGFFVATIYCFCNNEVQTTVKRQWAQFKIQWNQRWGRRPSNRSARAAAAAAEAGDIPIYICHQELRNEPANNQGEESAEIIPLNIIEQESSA

[1] = target: T2, Type-2 angiotensin II receptor (Homo sapiens, UniProt P50052); assay type: cell-based; conditions: cho-k1; note: in other assays of this panel Not Active means under 50% inhibition at 10 µM
T2 sequence (P50052 whole entry): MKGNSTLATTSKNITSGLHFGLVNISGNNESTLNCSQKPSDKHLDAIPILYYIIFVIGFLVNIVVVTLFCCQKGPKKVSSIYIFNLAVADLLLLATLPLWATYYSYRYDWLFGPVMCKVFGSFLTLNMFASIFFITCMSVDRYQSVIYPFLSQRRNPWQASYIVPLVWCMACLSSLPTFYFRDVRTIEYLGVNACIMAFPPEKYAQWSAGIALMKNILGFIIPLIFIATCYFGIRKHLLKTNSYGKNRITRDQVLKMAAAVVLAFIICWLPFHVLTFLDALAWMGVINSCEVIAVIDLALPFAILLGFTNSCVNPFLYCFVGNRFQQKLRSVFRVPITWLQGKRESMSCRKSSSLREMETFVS

Glucocorticoid receptor = target: T3, Glucocorticoid receptor (Homo sapiens, UniProt P04150); conditions: hela s3; note: in other assays of this panel Not Active means under 50% inhibition at 10 µM
T3 sequence (P04150 whole entry): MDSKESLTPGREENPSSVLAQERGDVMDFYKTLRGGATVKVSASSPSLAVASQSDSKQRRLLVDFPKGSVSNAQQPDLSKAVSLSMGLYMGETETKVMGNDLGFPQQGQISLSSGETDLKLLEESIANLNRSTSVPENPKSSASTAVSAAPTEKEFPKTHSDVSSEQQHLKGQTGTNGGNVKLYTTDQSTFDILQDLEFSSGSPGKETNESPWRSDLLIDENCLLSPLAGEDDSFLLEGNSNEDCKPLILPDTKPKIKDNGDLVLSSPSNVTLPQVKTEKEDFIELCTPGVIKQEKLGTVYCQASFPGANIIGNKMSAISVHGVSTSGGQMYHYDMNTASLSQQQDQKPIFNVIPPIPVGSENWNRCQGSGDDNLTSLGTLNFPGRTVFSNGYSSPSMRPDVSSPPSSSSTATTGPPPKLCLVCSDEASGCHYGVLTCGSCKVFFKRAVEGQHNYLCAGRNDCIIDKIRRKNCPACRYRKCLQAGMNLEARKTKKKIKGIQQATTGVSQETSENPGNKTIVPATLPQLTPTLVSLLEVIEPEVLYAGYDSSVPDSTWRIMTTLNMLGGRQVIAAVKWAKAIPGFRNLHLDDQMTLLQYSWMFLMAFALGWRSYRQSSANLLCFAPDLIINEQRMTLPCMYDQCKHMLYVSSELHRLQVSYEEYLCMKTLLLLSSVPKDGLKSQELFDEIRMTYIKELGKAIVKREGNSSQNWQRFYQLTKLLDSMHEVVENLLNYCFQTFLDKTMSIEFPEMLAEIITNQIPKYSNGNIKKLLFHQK

[2] = DRUGMATRIX: Atrial Natriuretic Factor (ANF) radioligand binding (ligand: [125I] ANF (rat)); assay type: cell membranes, Cavia porcellus, Dunkin-Hartley, Adrenal gland, Membrane; conditions: Not Active = under 50% inhibition at 10 µM
[3] = target: T4, C-X-C chemokine receptor type 2 (Homo sapiens, UniProt P25025); assay type: cell membranes, Membrane; conditions: cho-k1; note: in other assays of this panel Not Active means under 50% inhibition at 10 µM
T4 sequence (P25025 whole entry): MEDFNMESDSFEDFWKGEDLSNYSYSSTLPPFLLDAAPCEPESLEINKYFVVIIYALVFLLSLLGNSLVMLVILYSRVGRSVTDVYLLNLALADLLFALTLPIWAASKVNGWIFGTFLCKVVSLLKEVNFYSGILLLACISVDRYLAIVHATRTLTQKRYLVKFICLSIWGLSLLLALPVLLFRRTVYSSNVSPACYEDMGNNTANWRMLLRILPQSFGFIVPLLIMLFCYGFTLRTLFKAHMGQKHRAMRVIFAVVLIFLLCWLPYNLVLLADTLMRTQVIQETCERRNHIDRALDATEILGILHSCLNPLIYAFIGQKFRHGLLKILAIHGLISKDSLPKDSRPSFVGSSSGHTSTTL

[4] = target: T5, Amine oxidase [flavin-containing] A (Homo sapiens, UniProt P21397); assay: DRUGMATRIX: Monoamine Oxidase MAO-A enzyme inhibition (substrate: Kynuramine); design: species or system BTI-TN-5B1-4; conditions: bti-tn-5b1-4; Not Active = under 50% inhibition at 10 µM
T5 sequence (P21397 whole entry): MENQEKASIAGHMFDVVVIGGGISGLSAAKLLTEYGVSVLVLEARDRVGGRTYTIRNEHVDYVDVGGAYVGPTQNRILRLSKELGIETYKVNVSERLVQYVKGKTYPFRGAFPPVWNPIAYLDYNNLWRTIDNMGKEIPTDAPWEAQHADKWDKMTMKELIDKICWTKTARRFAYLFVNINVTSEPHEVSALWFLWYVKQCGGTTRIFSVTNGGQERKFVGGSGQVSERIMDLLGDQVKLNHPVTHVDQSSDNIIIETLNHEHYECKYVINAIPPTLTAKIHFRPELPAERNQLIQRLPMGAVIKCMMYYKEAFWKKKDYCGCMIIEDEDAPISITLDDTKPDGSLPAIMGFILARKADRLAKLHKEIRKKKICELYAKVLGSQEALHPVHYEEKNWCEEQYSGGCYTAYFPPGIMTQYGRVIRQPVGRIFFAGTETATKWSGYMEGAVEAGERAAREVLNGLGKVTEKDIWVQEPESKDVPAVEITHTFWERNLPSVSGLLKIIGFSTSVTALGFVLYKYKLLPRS

[5] = DRUGMATRIX: Nicotinic Acetylcholine radioligand binding (ligand: [125I] Epibatidine); assay type: cell membranes, Membrane; conditions: imr-32; Not Active = under 50% inhibition at 10 µM
[6] = DRUGMATRIX: Phorbol Ester radioligand binding (ligand: [3H] PDBu); assay type: cell membranes, Mus musculus, ICR, Brain, Membrane; conditions: Not Active = under 50% inhibition at 10 µM

Sequence of Substance-P receptor (P25103 whole entry): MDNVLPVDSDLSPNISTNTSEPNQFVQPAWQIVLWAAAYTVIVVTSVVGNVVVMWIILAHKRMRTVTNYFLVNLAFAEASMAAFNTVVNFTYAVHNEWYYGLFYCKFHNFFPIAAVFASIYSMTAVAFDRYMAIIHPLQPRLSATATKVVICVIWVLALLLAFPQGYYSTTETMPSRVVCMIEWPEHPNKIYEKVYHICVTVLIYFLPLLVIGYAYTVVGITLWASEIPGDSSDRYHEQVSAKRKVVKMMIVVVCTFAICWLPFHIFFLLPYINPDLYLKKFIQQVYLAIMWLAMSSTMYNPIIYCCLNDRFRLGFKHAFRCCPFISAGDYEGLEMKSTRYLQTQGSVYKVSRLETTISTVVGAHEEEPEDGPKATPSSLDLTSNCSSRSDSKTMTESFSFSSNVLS

CC[C@H](C)C(=O)O[C@H]1C[C@@H](C)C=C2C=C[C@H](C)[C@H](CC[C@@H]3C[C@@H](O)CC(=O)O3)[C@H]21 [LOVASTATIN]
Not Active: IC50 (Substance-P receptor) | IC50 (Calcitonin receptor) | IC50 [1] | IC50 (Glucocorticoid receptor) | IC50 [2] | Ki [2] | IC50 [3] | IC50 [4] | IC50 [5] | Ki [5] | IC50 [6] | Ki [6]

COBALT(II) ACETYLACETONATE
Not Active: IC50 (Substance-P receptor) | Ki (Substance-P receptor) | IC50 (Calcitonin receptor) | Ki (Calcitonin receptor) | IC50 [1] | Ki [1] | IC50 (Glucocorticoid receptor) | Ki (Glucocorticoid receptor) | IC50 [2] | Ki [2] | IC50 [3] | Ki [3] | IC50 [4] | Ki [4] | IC50 [5] | Ki [5] | IC50 [6] | Ki [6]

CN(C(=O)CCCOc1ccc2[nH]c(=O)ccc2c1)C1CCCCC1 [CILOSTAMIDE]
Not Active: IC50 (Substance-P receptor) | IC50 (Calcitonin receptor) | IC50 [1] | IC50 (Glucocorticoid receptor) | IC50 [2] | Ki [2] | IC50 [3] | IC50 [4] | IC50 [5] | Ki [5] | IC50 [6] | Ki [6]

INSULIN HUMAN
Not Active: IC50 (Substance-P receptor) | Ki (Substance-P receptor) | IC50 (Calcitonin receptor) | Ki (Calcitonin receptor) | IC50 [1] | Ki [1] | IC50 (Glucocorticoid receptor) | Ki (Glucocorticoid receptor) | IC50 [2] | Ki [2] | IC50 [3] | Ki [3] | IC50 [4] | Ki [4] | IC50 [5] | Ki [5] | IC50 [6] | Ki [6]

CCOC(=O)[C@H](CCc1ccccc1)N[C@@H](C)C(=O)N1CCC[C@H]1C(=O)O
Not Active: IC50 (Substance-P receptor) | IC50 (Calcitonin receptor) | IC50 [1] | IC50 (Glucocorticoid receptor) | IC50 [2] | Ki [2] | IC50 [3] | IC50 [4] | IC50 [5] | Ki [5] | IC50 [6] | Ki [6]

Cc1cccc(Nc2cc(Cl)nc(SCC(=O)O)n2)c1C [PIRINIXIC ACID]
Not Active: IC50 (Substance-P receptor) | IC50 (Calcitonin receptor) | IC50 [1] | IC50 (Glucocorticoid receptor) | IC50 [2] | Ki [2] | IC50 [3] | IC50 [4] | IC50 [5] | Ki [5] | IC50 [6] | Ki [6]

CC[C@H]1OC(=O)[C@H](C)[C@@H](O[C@H]2C[C@@](C)(OC)[C@@H](O)[C@H](C)O2)[C@H](C)[C@@H](O[C@@H]2O[C@H](C)C[C@H](N(C)C)[C@H]2O)[C@](C)(OC)C[C@@H](C)C(=O)[C@H](C)[C@@H](O)[C@]1(C)O [CLARITHROMYCIN]
Not Active: IC50 (Substance-P receptor) | IC50 (Calcitonin receptor) | IC50 [1] | IC50 (Glucocorticoid receptor) | IC50 [2] | Ki [2] | IC50 [3] | IC50 [4] | IC50 [5] | Ki [5] | IC50 [6] | Ki [6]

CCc1oc2ccccc2c1C(=O)c1cc(Br)c(O)c(Br)c1 [BENZBROMARONE]
Not Active: IC50 (Substance-P receptor) | IC50 (Calcitonin receptor) | IC50 [1] | IC50 (Glucocorticoid receptor) | IC50 [2] | Ki [2] | IC50 [3] | IC50 [4] | IC50 [5] | Ki [5] | IC50 [6] | Ki [6]

CC[C@]1(O)CC[C@H]2[C@@H]3CCC4=CCCC[C@@H]4[C@H]3CC[C@@]21C
Not Active: IC50 (Substance-P receptor) | IC50 (Calcitonin receptor) | IC50 [1] | IC50 (Glucocorticoid receptor) | IC50 [2] | Ki [2] | IC50 [3] | IC50 [4] | IC50 [5] | Ki [5] | IC50 [6] | Ki [6]

CC(C)(Oc1ccc(C2CC2(Cl)Cl)cc1)C(=O)O (stereo not drawn) [CIPROFIBRATE]
Not Active: IC50 (Substance-P receptor) | IC50 (Calcitonin receptor) | IC50 [1] | IC50 (Glucocorticoid receptor) | IC50 [2] | Ki [2] | IC50 [3] | IC50 [4] | IC50 [5] | Ki [5] | IC50 [6] | Ki [6]

CO[C@H]1[C@@H](O)[C@H](N)[C@@H](O[C@H]2O[C@H]([C@H](C)N)CC[C@H]2N)[C@H](O)[C@@H]1N(C)C(=O)CN [ASTROMICIN]
Not Active: IC50 (Substance-P receptor) | IC50 (Calcitonin receptor) | IC50 [1] | IC50 (Glucocorticoid receptor) | IC50 [2] | Ki [2] | IC50 [3] | IC50 [4] | IC50 [5] | Ki [5] | IC50 [6] | Ki [6]

Clc1cc2c(cc1Cl)Oc1cc(Cl)c(Cl)cc1O2 [2,3,7,8-TETRACHLORODIBENZO-P-DIOXIN]
Not Active: IC50 (Substance-P receptor) | IC50 (Calcitonin receptor) | IC50 [1] | IC50 (Glucocorticoid receptor) | IC50 [2] | Ki [2] | IC50 [3] | IC50 [4] | IC50 [5] | Ki [5] | IC50 [6] | Ki [6]

CNC(=C[N+](=O)[O-])NCCSCc1csc(CN(C)C)n1 [NIZATIDINE]
Not Active: IC50 (Substance-P receptor) | IC50 (Calcitonin receptor) | IC50 [1] | IC50 (Glucocorticoid receptor) | IC50 [2] | Ki [2] | IC50 [3] | IC50 [4] | IC50 [5] | Ki [5] | IC50 [6] | Ki [6]
